Results taken from ChEMBL document CHEMBL3045696, “CsFCelite catalyzed facile N-alkylation of 2(3H)-benzoxazolones and antimicrobial properties of 2-substituted benzoxazole and 3-substituted-2(3H)-benzoxazolone derivatives” (2011).
Values after ≈ are worked out from the molar mass of the structure shown. Active and inactive are the calls of the source. The calls are words filed in the database; no cut-off is given here.

What was measured:
Assay type in all cases: functional
Aspergillus niger [1] = assay: Antimicrobial activity against Aspergillus niger MTCC 282 at 150 ug after 48 hr by agar well diffusion method; settings: for zone of inhibition at 150 µg/disc: MTCC 282, 48 h, read-out: IZ
Rhizopus arrhizus [2] = assay: Antimicrobial activity against Rhizopus oryzae MTCC 262 at 150 ug after 48 hr by agar well diffusion method; settings: for zone of inhibition at 150 µg/disc: MTCC 262, 48 h, read-out: IZ
Aspergillus niger [3] = assay: Antimicrobial activity against Aspergillus niger MTCC 282 at 100 ug after 48 hr by agar well diffusion method; settings: for zone of inhibition at 100 µg/disc: MTCC 282, 48 h, read-out: IZ
Rhizopus arrhizus [4] = assay: Antimicrobial activity against Rhizopus oryzae MTCC 262 at 100 ug after 48 hr by agar well diffusion method; settings: for zone of inhibition at 100 µg/disc: MTCC 262, 48 h, read-out: IZ
Saccharomyces cerevisiae [5] = assay: Antimicrobial activity against Saccharomyces cerevisiae MTCC 36 at 150 ug after 48 hr by agar well diffusion method; settings: for zone of inhibition at 150 µg/disc: MTCC 36, 48 h, read-out: IZ
Saccharomyces cerevisiae [6] = assay: Antimicrobial activity against Saccharomyces cerevisiae MTCC 36 at 100 ug after 48 hr by agar well diffusion method; settings: for zone of inhibition at 100 µg/disc: MTCC 36, 48 h, read-out: IZ
Candida albicans [7] = assay: Antimicrobial activity against Candida albicans MTCC 227 at 100 ug after 48 hr by agar well diffusion method; settings: for zone of inhibition at 100 µg/disc: MTCC 227, 48 h, read-out: IZ
Candida albicans [8] = assay: Antimicrobial activity against Candida albicans MTCC 227 at 150 ug after 48 hr by agar well diffusion method; settings: for zone of inhibition at 150 µg/disc: MTCC 227, 48 h, read-out: IZ
Klebsiella pneumoniae = assay: Antimicrobial activity against Klebsiella pneumoniae MTCC 618 by broth dilution method
Pseudomonas aeruginosa = assay: Antimicrobial activity against Pseudomonas aeruginosa MTCC 741 by broth dilution method
Escherichia coli = assay: Antimicrobial activity against Escherichia coli MTCC 443 by broth dilution method
[9] = tested on: Staphylococcus epidermidis; assay: Antimicrobial activity against Staphylococcus epidermidis by broth dilution method
Staphylococcus aureus = assay: Antimicrobial activity against Staphylococcus aureus MTCC 96 by broth dilution method
Bacillus subtilis = assay: Antimicrobial activity against Bacillus subtilis MTCC 441 by broth dilution method

SMILES: c1ccc(N2CCN(c3nc4ccccc4o3)CC2)nc1
- Activity (Aspergillus niger [1]): inactive
- Activity (Rhizopus arrhizus [2]): inactive
- Activity (Aspergillus niger [3]): inactive
- Activity (Rhizopus arrhizus [4]): inactive
- Activity (Saccharomyces cerevisiae [5]): inactive
- Activity (Saccharomyces cerevisiae [6]): inactive
- zone of inhibition at 100 µg/disc (Candida albicans [7]): 8 mm
- zone of inhibition at 150 µg/disc (Candida albicans [8]): 10 mm
- MIC (Klebsiella pneumoniae): 150 µg/mL (≈ 535 µM)
- MIC (Pseudomonas aeruginosa): 75 µg/mL (≈ 268 µM)
- MIC (Escherichia coli): 150 µg/mL (≈ 535 µM)
- MIC [9]: 150 µg/mL (≈ 535 µM)
- MIC (Staphylococcus aureus): 150 µg/mL (≈ 535 µM)
- MIC (Bacillus subtilis): 150 µg/mL (≈ 535 µM)

SMILES: O=c1oc2ccc(Cl)cc2n1CCCCl
- zone of inhibition at 150 µg/disc (Aspergillus niger [1]): 17 mm
- zone of inhibition at 150 µg/disc (Rhizopus arrhizus [2]): 15 mm
- zone of inhibition at 100 µg/disc (Aspergillus niger [3]): 13 mm
- zone of inhibition at 100 µg/disc (Rhizopus arrhizus [4]): 11 mm
- zone of inhibition at 150 µg/disc (Saccharomyces cerevisiae [5]): 15 mm
- zone of inhibition at 100 µg/disc (Saccharomyces cerevisiae [6]): 12 mm
- zone of inhibition at 100 µg/disc (Candida albicans [7]): 14 mm
- zone of inhibition at 150 µg/disc (Candida albicans [8]): 19 mm
- MIC (Klebsiella pneumoniae): 150 µg/mL (≈ 610 µM)
- MIC (Pseudomonas aeruginosa): 150 µg/mL (≈ 610 µM)
- MIC (Escherichia coli): 150 µg/mL (≈ 610 µM)
- MIC [9]: 150 µg/mL (≈ 610 µM)
- MIC (Staphylococcus aureus): 150 µg/mL (≈ 610 µM)
- MIC (Bacillus subtilis): 150 µg/mL (≈ 610 µM)

SMILES: C#CCn1c(=O)oc2ccc(Cl)cc21
- zone of inhibition at 150 µg/disc (Aspergillus niger [1]): 18 mm
- zone of inhibition at 150 µg/disc (Rhizopus arrhizus [2]): 19 mm
- zone of inhibition at 100 µg/disc (Aspergillus niger [3]): 15 mm
- zone of inhibition at 100 µg/disc (Rhizopus arrhizus [4]): 15 mm
- zone of inhibition at 150 µg/disc (Saccharomyces cerevisiae [5]): 18 mm
- zone of inhibition at 100 µg/disc (Saccharomyces cerevisiae [6]): 14 mm
- zone of inhibition at 100 µg/disc (Candida albicans [7]): 8 mm
- zone of inhibition at 150 µg/disc (Candida albicans [8]): 11 mm
- MIC (Klebsiella pneumoniae): 75 µg/mL (≈ 361 µM)
- MIC (Pseudomonas aeruginosa): 37.5 µg/mL (≈ 181 µM)
- MIC (Escherichia coli): 37.5 µg/mL (≈ 181 µM)
- MIC [9]: 75 µg/mL (≈ 361 µM)
- MIC (Staphylococcus aureus): 75 µg/mL (≈ 361 µM)
- MIC (Bacillus subtilis): 75 µg/mL (≈ 361 µM)

SMILES: CC1(C)S[C@@H]2[C@H](NC(=O)Cc3ccccc3)C(=O)N2[C@H]1C(=O)O [PENICILLIN G]
- MIC (Klebsiella pneumoniae): 6.25 µg/mL (≈ 18.7 µM)
- MIC (Pseudomonas aeruginosa): 12.5 µg/mL (≈ 37.4 µM)
- MIC (Escherichia coli): 12.5 µg/mL (≈ 37.4 µM)
- MIC [9]: 3.12 µg/mL (≈ 9.35 µM)
- MIC (Staphylococcus aureus): 1.56 µg/mL (≈ 4.67 µM)
- MIC (Bacillus subtilis): 1.56 µg/mL (≈ 4.67 µM)

SMILES: C=CCCn1c(=O)oc2ccc(Cl)cc21
- Activity (Aspergillus niger [1]): inactive
- zone of inhibition at 150 µg/disc (Rhizopus arrhizus [2]): 13 mm
- Activity (Aspergillus niger [3]): inactive
- zone of inhibition at 100 µg/disc (Rhizopus arrhizus [4]): 9 mm
- Activity (Saccharomyces cerevisiae [5]): inactive
- Activity (Saccharomyces cerevisiae [6]): inactive
- Activity (Candida albicans [7]): inactive
- Activity (Candida albicans [8]): inactive
- MIC (Klebsiella pneumoniae): 37.5 µg/mL (≈ 168 µM)
- MIC (Pseudomonas aeruginosa): 150 µg/mL (≈ 671 µM)
- MIC (Escherichia coli): 150 µg/mL (≈ 671 µM)
- MIC [9]: 150 µg/mL (≈ 671 µM)
- MIC (Staphylococcus aureus): 150 µg/mL (≈ 671 µM)
- MIC (Bacillus subtilis): 150 µg/mL (≈ 671 µM)

SMILES: O=c1oc2ccc(Cl)cc2n1CCCN1CCOCC1
- zone of inhibition at 150 µg/disc (Aspergillus niger [1]): 10 mm
- zone of inhibition at 150 µg/disc (Rhizopus arrhizus [2]): 13 mm
- zone of inhibition at 100 µg/disc (Aspergillus niger [3]): 8 mm
- zone of inhibition at 100 µg/disc (Rhizopus arrhizus [4]): 10 mm
- zone of inhibition at 150 µg/disc (Saccharomyces cerevisiae [5]): 10 mm
- zone of inhibition at 100 µg/disc (Saccharomyces cerevisiae [6]): 8 mm
- zone of inhibition at 100 µg/disc (Candida albicans [7]): 8 mm
- zone of inhibition at 150 µg/disc (Candida albicans [8]): 10 mm
- MIC (Klebsiella pneumoniae): 75 µg/mL (≈ 253 µM)
- MIC (Pseudomonas aeruginosa): 37.5 µg/mL (≈ 126 µM)
- MIC (Escherichia coli): 37.5 µg/mL (≈ 126 µM)
- MIC [9]: 75 µg/mL (≈ 253 µM)
- MIC (Staphylococcus aureus): 75 µg/mL (≈ 253 µM)
- MIC (Bacillus subtilis): 75 µg/mL (≈ 253 µM)

SMILES: O=c1oc2ccc(Cl)cc2n1CCCN1CCN(c2ncccn2)CC1
- Activity (Aspergillus niger [1]): inactive
- Activity (Rhizopus arrhizus [2]): inactive
- Activity (Aspergillus niger [3]): inactive
- Activity (Rhizopus arrhizus [4]): inactive
- Activity (Saccharomyces cerevisiae [5]): inactive
- Activity (Saccharomyces cerevisiae [6]): inactive
- Activity (Candida albicans [7]): inactive
- Activity (Candida albicans [8]): inactive
- MIC (Klebsiella pneumoniae): 150 µg/mL (≈ 401 µM)
- MIC (Pseudomonas aeruginosa): 150 µg/mL (≈ 401 µM)
- MIC (Escherichia coli): 150 µg/mL (≈ 401 µM)
- MIC [9]: 150 µg/mL (≈ 401 µM)
- MIC (Staphylococcus aureus): 150 µg/mL (≈ 401 µM)
- MIC (Bacillus subtilis): 150 µg/mL (≈ 401 µM)

SMILES: O=c1oc2ccc(Cl)cc2n1CCCN1CCN(c2cccc(Cl)c2)CC1
- Activity (Aspergillus niger [1]): inactive
- Activity (Rhizopus arrhizus [2]): inactive
- Activity (Aspergillus niger [3]): inactive
- Activity (Rhizopus arrhizus [4]): inactive
- Activity (Saccharomyces cerevisiae [5]): inactive
- Activity (Saccharomyces cerevisiae [6]): inactive
- Activity (Candida albicans [7]): inactive
- Activity (Candida albicans [8]): inactive
- MIC (Klebsiella pneumoniae): 150 µg/mL (≈ 369 µM)
- MIC (Pseudomonas aeruginosa): 150 µg/mL (≈ 369 µM)
- MIC (Escherichia coli): 150 µg/mL (≈ 369 µM)
- MIC [9]: 150 µg/mL (≈ 369 µM)
- MIC (Staphylococcus aureus): 150 µg/mL (≈ 369 µM)
- MIC (Bacillus subtilis): 150 µg/mL (≈ 369 µM)
